{"source": "ChEMBL document CHEMBL3758085", "about": "“Synthesis and cytotoxicity of thieno[2,3-b]quinoline-2-carboxamide and cycloalkyl[b]thieno[3,2-e]pyridine-2-carboxamide derivatives” (Bioorg Med Chem, 2016)", "type_in_all_cases": "functional", "key": {"MDA-MB-468": {"system": "MDA-MB-468", "assay": "Antiproliferative activity against human MDA-MB-468 cells assessed as cell growth at 1 uM incubated for 3 days by 3H-thymidine incorporation assay relative to control", "details": "read-out: Activity"}, "MDA-MB-231": {"system": "MDA-MB-231", "assay": "Antiproliferative activity against human MDA-MB-231 cells assessed as cell growth at 1 uM incubated for 3 days by 3H-thymidine incorporation assay relative to control", "details": "read-out: Activity"}, "[1]": {"assay": "Antiproliferative activity against human HCT116 cells assessed as cell growth at 1 uM incubated for 3 days by 3H-thymidine incorporation assay relative to control", "details": "HCT-116, read-out: Activity"}}, "data": [{"smiles": "Nc1c(C(=O)Nc2ccc3ccccc3c2)sc2nc3c(cc12)CCC3", "values": [{"measurement": "growth at 1 µM", "setting": "MDA-MB-468", "result": 64, "unit": "%"}, {"measurement": "growth at 1 µM", "setting": "MDA-MB-231", "result": 81, "unit": "%"}, {"measurement": "growth at 1 µM", "setting": "[1]", "result": 94, "unit": "%"}]}, {"smiles": "O=c1c2sc3ncccc3c2ncn1-c1ccccc1", "values": [{"measurement": "growth at 1 µM", "setting": "MDA-MB-468", "result": 101, "unit": "%"}, {"measurement": "growth at 1 µM", "setting": "MDA-MB-231", "result": 107, "unit": "%"}, {"measurement": "growth at 1 µM", "setting": "[1]", "result": 96, "unit": "%"}]}, {"smiles": "COc1ccc(OC)c(NC(=O)c2sc3nc4c(cc3c2N)CCCCCC4)c1", "values": [{"measurement": "growth at 1 µM", "setting": "MDA-MB-468", "result": 94, "unit": "%"}, {"measurement": "growth at 1 µM", "setting": "MDA-MB-231", "result": 131, "unit": "%"}, {"measurement": "growth at 1 µM", "setting": "[1]", "result": 107, "unit": "%"}]}, {"smiles": "CCc1ccccc1NC(=O)c1sc2nc3c(cc2c1N)CCCC3", "values": [{"measurement": "growth at 1 µM", "setting": "MDA-MB-468", "result": 63, "unit": "%"}, {"measurement": "growth at 1 µM", "setting": "MDA-MB-231", "result": 89, "unit": "%"}, {"measurement": "growth at 1 µM", "setting": "[1]", "result": 86, "unit": "%"}]}, {"smiles": "Nc1c(C(=O)Nc2ccc(Cl)cc2)sc2nc3c(cc12)CCCCCC3", "values": [{"measurement": "growth at 1 µM", "setting": "MDA-MB-468", "result": 82, "unit": "%"}, {"measurement": "growth at 1 µM", "setting": "MDA-MB-231", "result": 117, "unit": "%"}, {"measurement": "growth at 1 µM", "setting": "[1]", "result": 94, "unit": "%"}]}, {"smiles": "CCc1cccc(C)c1NC(=O)c1sc2nc3c(cc2c1N)CCCC3", "values": [{"measurement": "growth at 1 µM", "setting": "MDA-MB-468", "result": 67, "unit": "%"}, {"measurement": "growth at 1 µM", "setting": "MDA-MB-231", "result": 84, "unit": "%"}, {"measurement": "growth at 1 µM", "setting": "[1]", "result": 96, "unit": "%"}]}, {"smiles": "Nc1c(C(=O)Nc2cccc(Br)c2)sc2nc3c(cc12)CCC3", "values": [{"measurement": "growth at 1 µM", "setting": "MDA-MB-468", "result": 53, "unit": "%"}, {"measurement": "growth at 1 µM", "setting": "MDA-MB-231", "result": 94, "unit": "%"}, {"measurement": "growth at 1 µM", "setting": "[1]", "result": 93, "unit": "%"}]}, {"smiles": "Nc1c(C(=O)Nc2cccc3ccccc23)sc2nc3c(cc12)CCCCC3", "values": [{"measurement": "growth at 1 µM", "setting": "MDA-MB-468", "result": 91, "unit": "%"}, {"measurement": "growth at 1 µM", "setting": "MDA-MB-231", "result": 106, "unit": "%"}, {"measurement": "growth at 1 µM", "setting": "[1]", "result": 93, "unit": "%"}]}, {"smiles": "Cc1cc(C)c(NC(=O)c2sc3nc4c(cc3c2N)CCCCC4)c(C)c1", "values": [{"measurement": "growth at 1 µM", "setting": "MDA-MB-468", "result": 89, "unit": "%"}, {"measurement": "growth at 1 µM", "setting": "MDA-MB-231", "result": 98, "unit": "%"}, {"measurement": "growth at 1 µM", "setting": "[1]", "result": 99, "unit": "%"}]}, {"smiles": "COc1ccc(NC(=O)c2sc3nc4c(cc3c2N)CCCCCC4)c(OC)c1", "values": [{"measurement": "growth at 1 µM", "setting": "MDA-MB-468", "result": 110, "unit": "%"}, {"measurement": "growth at 1 µM", "setting": "MDA-MB-231", "result": 119, "unit": "%"}, {"measurement": "growth at 1 µM", "setting": "[1]", "result": 109, "unit": "%"}]}, {"smiles": "Cc1ccc2nc3sc(C(=O)Nc4cccnc4)cc3cc2c1", "values": [{"measurement": "growth at 1 µM", "setting": "MDA-MB-468", "result": 101, "unit": "%"}, {"measurement": "growth at 1 µM", "setting": "MDA-MB-231", "result": 81, "unit": "%"}, {"measurement": "growth at 1 µM", "setting": "[1]", "result": 102, "unit": "%"}]}, {"smiles": "Nc1c(C(=O)Nc2ccccc2C(F)(F)F)sc2nc3c(cc12)CCCC3", "values": [{"measurement": "growth at 1 µM", "setting": "MDA-MB-468", "result": 93, "unit": "%"}, {"measurement": "growth at 1 µM", "setting": "MDA-MB-231", "result": 128, "unit": "%"}, {"measurement": "growth at 1 µM", "setting": "[1]", "result": 104, "unit": "%"}]}, {"smiles": "Nc1c(C(=O)Nc2cccc(C(F)(F)F)c2)sc2nc3c(cc12)CCC3", "values": [{"measurement": "growth at 1 µM", "setting": "MDA-MB-468", "result": 58, "unit": "%"}, {"measurement": "growth at 1 µM", "setting": "MDA-MB-231", "result": 100, "unit": "%"}, {"measurement": "growth at 1 µM", "setting": "[1]", "result": 90, "unit": "%"}]}, {"smiles": "CCCCOc1cccc(NC(=O)c2sc3nc4c(cc3c2N)CCCCC4)c1", "values": [{"measurement": "growth at 1 µM", "setting": "MDA-MB-468", "result": 53, "unit": "%"}, {"measurement": "growth at 1 µM", "setting": "MDA-MB-231", "result": 100, "unit": "%"}, {"measurement": "growth at 1 µM", "setting": "[1]", "result": 97, "unit": "%"}]}, {"smiles": "Nc1c(C(=O)Nc2cccc(Br)c2)sc2nc3c(cc12)CCCCC3", "values": [{"measurement": "growth at 1 µM", "setting": "MDA-MB-468", "result": 45, "unit": "%"}, {"measurement": "growth at 1 µM", "setting": "MDA-MB-231", "result": 92, "unit": "%"}, {"measurement": "growth at 1 µM", "setting": "[1]", "result": 83, "unit": "%"}]}, {"smiles": "COc1ccc(NC(=O)c2sc3nc4c(cc3c2N)CCCCCC4)cc1OC", "values": [{"measurement": "growth at 1 µM", "setting": "MDA-MB-468", "result": 107, "unit": "%"}, {"measurement": "growth at 1 µM", "setting": "MDA-MB-231", "result": 102, "unit": "%"}, {"measurement": "growth at 1 µM", "setting": "[1]", "result": 106, "unit": "%"}]}, {"smiles": "Cc1ccc2nc3sc(C(=O)Nc4ccccc4C)cc3cc2c1", "values": [{"measurement": "growth at 1 µM", "setting": "MDA-MB-468", "result": 89, "unit": "%"}, {"measurement": "growth at 1 µM", "setting": "MDA-MB-231", "result": 104, "unit": "%"}, {"measurement": "growth at 1 µM", "setting": "[1]", "result": 99, "unit": "%"}]}, {"smiles": "Cc1ccccc1NC(=O)c1sc2nc3c(cc2c1N)CCCC3", "values": [{"measurement": "growth at 1 µM", "setting": "MDA-MB-468", "result": 53, "unit": "%"}, {"measurement": "growth at 1 µM", "setting": "MDA-MB-231", "result": 70, "unit": "%"}, {"measurement": "growth at 1 µM", "setting": "[1]", "result": 84, "unit": "%"}]}, {"smiles": "Nc1c(C(=O)Nc2c(Cl)cccc2Cl)sc2nc3c(cc12)CCCC3", "values": [{"measurement": "growth at 1 µM", "setting": "MDA-MB-468", "result": 82, "unit": "%"}, {"measurement": "growth at 1 µM", "setting": "MDA-MB-231", "result": 93, "unit": "%"}, {"measurement": "growth at 1 µM", "setting": "[1]", "result": 100, "unit": "%"}]}, {"smiles": "Nc1c(C(=O)Nc2ccccc2Cl)sc2nc3c(cc12)CCCCC3", "values": [{"measurement": "growth at 1 µM", "setting": "MDA-MB-468", "result": 73, "unit": "%"}, {"measurement": "growth at 1 µM", "setting": "MDA-MB-231", "result": 89, "unit": "%"}, {"measurement": "growth at 1 µM", "setting": "[1]", "result": 92, "unit": "%"}]}, {"smiles": "Nc1c(C(=O)Nc2ccccc2)sc2nc3c(c(-c4ccco4)c12)CCCCC3", "values": [{"measurement": "growth at 1 µM", "setting": "MDA-MB-468", "result": 71, "unit": "%"}, {"measurement": "growth at 1 µM", "setting": "MDA-MB-231", "result": 89, "unit": "%"}, {"measurement": "growth at 1 µM", "setting": "[1]", "result": 65, "unit": "%"}]}, {"smiles": "Cc1ccc2cc3cc(C(=O)Nc4cnc5ccccc5c4)sc3nc2c1", "values": [{"measurement": "growth at 1 µM", "setting": "MDA-MB-468", "result": 87, "unit": "%"}, {"measurement": "growth at 1 µM", "setting": "MDA-MB-231", "result": 97, "unit": "%"}, {"measurement": "growth at 1 µM", "setting": "[1]", "result": 99, "unit": "%"}]}, {"smiles": "Nc1c(C(=O)Nc2cccc([N+](=O)[O-])c2)sc2nc3c(cc12)CCC3", "values": [{"measurement": "growth at 1 µM", "setting": "MDA-MB-468", "result": 46, "unit": "%"}, {"measurement": "growth at 1 µM", "setting": "MDA-MB-231", "result": 79, "unit": "%"}, {"measurement": "growth at 1 µM", "setting": "[1]", "result": 79, "unit": "%"}]}, {"smiles": "CCOc1ccc2nc3sc(C(=O)Nc4ccc(Cl)cc4)c(N)c3cc2c1", "values": [{"measurement": "growth at 1 µM", "setting": "MDA-MB-468", "result": 93, "unit": "%"}, {"measurement": "growth at 1 µM", "setting": "MDA-MB-231", "result": 97, "unit": "%"}, {"measurement": "growth at 1 µM", "setting": "[1]", "result": 100, "unit": "%"}]}, {"smiles": "Nc1c(C(=O)Nc2ccc3ccccc3c2)sc2nc3c(cc12)CCCCC3", "values": [{"measurement": "growth at 1 µM", "setting": "MDA-MB-468", "result": 97, "unit": "%"}, {"measurement": "growth at 1 µM", "setting": "MDA-MB-231", "result": 118, "unit": "%"}, {"measurement": "growth at 1 µM", "setting": "[1]", "result": 103, "unit": "%"}]}, {"smiles": "Nc1c(C(=O)Nc2cccc(C(F)(F)F)c2)sc2nc3c(cc12)CCCC3", "values": [{"measurement": "growth at 1 µM", "setting": "MDA-MB-468", "result": 41, "unit": "%"}, {"measurement": "growth at 1 µM", "setting": "MDA-MB-231", "result": 108, "unit": "%"}, {"measurement": "growth at 1 µM", "setting": "[1]", "result": 82, "unit": "%"}]}, {"smiles": "COc1ccc(NC(=O)c2sc3nc4c(cc3c2N)CCCCCC4)cc1", "values": [{"measurement": "growth at 1 µM", "setting": "MDA-MB-468", "result": 84, "unit": "%"}, {"measurement": "growth at 1 µM", "setting": "MDA-MB-231", "result": 107, "unit": "%"}, {"measurement": "growth at 1 µM", "setting": "[1]", "result": 106, "unit": "%"}]}]}
